What all share (test): Zone of inhibition screen, 96 well agar array format
One assay relates to E. faceium (ATCC 49624). The assay is classed as cell-based, E. faecium. As to the method:
The antibacterial activity of each of the compounds against the bacterial strains E. faceium (ATCC 49624), S. epidermidis (ATCC 12228), S. aureus (ATCC 29213), E. faecalis (CL 4877) and E. faecalis (ATCC 292121) was tested. Each of the compounds was screened in a 96 will agar array format.

The subject of assay [1] is S. epidermidis (ATCC 12228). The assay is classed as cell-based. Also on record: scale not given here. Put shortly:
(§1)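 Compounds are screened one by one for antibacterial effect in an agar array of 96 wells, using the same set of strains throughout.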

The subject of a further assay is E. faecalis (CL 4877). The assay is classed as cell-based. Also on record: scale not given here. The settings on record: zone of inhibition relative to 1 mg/ml stock solution of p-chlorobiphenylvancomycin. In outline: as §1
Another assay deals with S. aureus (ATCC 29213). In kind it is cell-based. Also on record: scale not given here. The settings on record: zone of inhibition relative to 1 mg/ml stock solution of p-chlorobiphenylvancomycin. In outline: as §1
The mark [2] stands for this setting: zone of inhibition relative to 1 mg/ml stock solution of p-chlorobiphenylvancomycin.
[3] abbreviates: zone of inhibition relative to 1 mg/ml p-chlorobiphenylvancomycin.
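For zone score, E. faecium ATCC 49624 in this document: score 3 means fourfold and score 4 sixteenfold the reference zone size.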

In the case of `CC1OC(OC2C(Oc3c4cc5cc3Oc3ccc(cc3Cl)C(O)C3NC(=O)C(NC(=O)C5NC(=O)C(CC(N)=O)NC(=O)C(NC(=O)C5CC(O)CN5)C(O)c5ccc(c(Cl)c5)O4)c4ccc(O)c(c4)-c4c(O)cc(O)cc4C(C(=O)O)NC3=O)OC(CO)C(O)C2O)CC(C)(NCc2ccc(-c3ccc(Cl)cc3)cc2)C1O` (stereo not shown) [Compound 72], the “zone score, E. faecium ATCC 49624” value in the assay on E. faceium (ATCC 49624) (setting [2]) is 2. Further, in assay [1] (setting [2]), the “zone score, S. epidermidis ATCC 12228” value amounted to 2. In the assay on E. faecalis (CL 4877), the “zone score, E. faecalis CL 4877” value was 2.

Regarding `CC(=O)NCCCCC(N)C(=O)NC1C(=O)NC(CC(N)=O)C(=O)NC2C(=O)NC3C(=O)NC(C(=O)NC(C(=O)O)c4cc(O)cc(O)c4-c4cc3ccc4O)C(O)c3ccc(c(Cl)c3)Oc3cc2cc(c3OC2OC(CO)C(O)C(O)C2OC2CC(C)(NCc3ccc(-c4ccc(Cl)cc4)cc3)C(O)C(C)O2)Oc2ccc(cc2Cl)C1O` (stereo not shown) [Compound 76], the “zone score, E. faecium ATCC 49624” value with E. faceium (ATCC 49624) (setting [2]) turned out to be 2. Also, the “zone score, S. epidermidis ATCC 12228” value in assay [1] (setting [2]) stood at 2.

In the case of `CC1OC(OC2C(Oc3c4cc5cc3Oc3ccc(cc3Cl)C(O)C3NC(=O)C(NC(=O)C5NC(=O)C(CC(N)=O)NC(=O)C(NC(=O)C(CC[S+](C)[O-])NC(=O)OC(C)(C)C)C(O)c5ccc(c(Cl)c5)O4)c4ccc(O)c(c4)-c4c(O)cc(O)cc4C(C(=O)O)NC3=O)OC(CO)C(O)C2O)CC(C)(NCc2ccc(-c3ccc(Cl)cc3)cc2)C1O` (stereo not shown) [Compound 142], the “zone score, E. faecium ATCC 49624” value in the assay with E. faceium (ATCC 49624) (setting [2]) amounted to 2. For the same molecule, the “zone score, S. aureus ATCC 29213” value with S. aureus (ATCC 29213) is reported as 2. The “zone score, E. faecalis CL 4877” value with E. faecalis (CL 4877) is 2.

As for `CC(=O)NCSC(C)(C)C(N)C(=O)NC1C(=O)NC(CC(N)=O)C(=O)NC2C(=O)NC3C(=O)NC(C(=O)NC(C(=O)O)c4cc(O)cc(O)c4-c4cc3ccc4O)C(O)c3ccc(c(Cl)c3)Oc3cc2cc(c3OC2OC(CO)C(O)C(O)C2OC2CC(C)(NCc3ccc(-c4ccc(Cl)cc4)cc3)C(O)C(C)O2)Oc2ccc(cc2Cl)C1O` (stereo not shown) [Compound 84], the “zone score, E. faecium ATCC 49624” value in the assay with E. faceium (ATCC 49624) (setting [2]) was determined as 2. The “zone score, S. epidermidis ATCC 12228” value in assay [1] (setting [2]) stood at 2. Moreover, the “zone score, S. aureus ATCC 29213” value in the assay on S. aureus (ATCC 29213) was determined as 2.

Turning to `CC1OC(OC2C(Oc3c4cc5cc3Oc3ccc(cc3Cl)C(O)C3NC(=O)C(NC(=O)C5NC(=O)C(CC(N)=O)NC(=O)C(NC(=O)Cn5cccc(N)c5=O)C(O)c5ccc(c(Cl)c5)O4)c4ccc(O)c(c4)-c4c(O)cc(O)cc4C(C(=O)O)NC3=O)OC(CO)C(O)C2O)CC(C)(NCc2ccc(-c3ccc(Cl)cc3)cc2)C1O` (stereo not shown) [Compound 32], in the assay on E. faceium (ATCC 49624) (setting [2]), the “zone score, E. faecium ATCC 49624” value is recorded as 2. Further, in the assay with S. aureus (ATCC 29213), the “zone score, S. aureus ATCC 29213” value was 2. Besides, the “zone score, E. faecalis CL 4877” value in the assay on E. faecalis (CL 4877) turned out to be 2.

Take `CC1OC(OC2C(Oc3c4cc5cc3Oc3ccc(cc3Cl)C(O)C3NC(=O)C(NC(=O)C5NC(=O)C(CC(N)=O)NC(=O)C(NC(=O)CC(O)C[N+](C)(C)C)C(O)c5ccc(c(Cl)c5)O4)c4ccc(O)c(c4)-c4c(O)cc(O)cc4C(C(=O)O)NC3=O)OC(CO)C(O)C2O)CC(C)(NCc2ccc(-c3ccc(Cl)cc3)cc2)C1O` (mixture of isomers) [Compound 151]: the “zone score, E. faecium ATCC 49624” value with E. faceium (ATCC 49624) (setting [2]) was determined as 2. Further, the “zone score, S. epidermidis ATCC 12228” value in assay [1] (setting [2]) was 2. For the same molecule, in the assay on E. faecalis (CL 4877), the “zone score, E. faecalis CL 4877” value came to 2.

Take `CC(=O)c1ccc(C(=O)NC2C(=O)NC(CC(N)=O)C(=O)NC3C(=O)NC4C(=O)NC(C(=O)NC(C(=O)O)c5cc(O)cc(O)c5-c5cc4ccc5O)C(O)c4ccc(c(Cl)c4)Oc4cc3cc(c4OC3OC(CO)C(O)C(O)C3OC3CC(C)(NCc4ccc(-c5ccc(Cl)cc5)cc4)C(O)C(C)O3)Oc3ccc(cc3Cl)C2O)cc1` (stereo not shown) [Compound 267]: the “zone score, E. faecium ATCC 49624” value with E. faceium (ATCC 49624) (setting [3]) was found to be 2. Also, in assay [1] (setting [3]), the “zone score, S. epidermidis ATCC 12228” value is 2.

With `CC1OC(OC2C(Oc3c4cc5cc3Oc3ccc(cc3Cl)C(O)C3NC(=O)C(NC(=O)C5NC(=O)C(CC(N)=O)NC(=O)C(NC(=O)CN5CCN(CCN)CC5)C(O)c5ccc(c(Cl)c5)O4)c4ccc(O)c(c4)-c4c(O)cc(O)cc4C(C(=O)O)NC3=O)OC(CO)C(O)C2O)CC(C)(NCc2ccc(-c3ccc(Cl)cc3)cc2)C1O` (stereo not shown) [Compound 33], the “zone score, E. faecium ATCC 49624” value in the assay with E. faceium (ATCC 49624) (setting [2]) is 2. For the same molecule, in the assay with S. aureus (ATCC 29213), the “zone score, S. aureus ATCC 29213” value stood at 2. The “zone score, E. faecalis CL 4877” value in the assay on E. faecalis (CL 4877) was determined as 2.

Source of the values: patent publication US6518243B1, “Desleucyl glycopeptide antibiotics and methods of making same” (Trustees of Princeton University, priority 1999, dated 2003).
